Values quoted from earlier work in US9145409B2, “Benzhydryl derivatives” (CHIESI FARMACEUTICI S.p.A., priority 2013, dated 2015).

Tests used:
[1] = system: smoking model of COPD in mice
[2] = COPD patients, oral, given over 4 weeks
[3] = clinical trials, 500 mg once daily given over 12 months
[4] = patients with severe disease, frequent exacerbations and mucus hypersecretion

SMILES: O=C(Nc1c(Cl)cncc1Cl)c1ccc(OC(F)F)c(OCC2CC2)c1 [roflumilast]
- CXCL8 concentrations in sputum (COPD patients; [2]): significantly reduces
- reduction of the numbers of neutrophils in sputum (COPD patients; [2]): 36%
- clinical benefit as add-on (COPD patients; added to salmeterol or tiotropium): provides clinical benefit
- exacerbations and quality of life (COPD patients; [3]): little effect in reducing exacerbations or improving quality of life
- lung function (COPD patients; [3]): improved lung function in COPD patients to a small extent
- improvement of FEV 1 (COPD patients; [4]): approximately 50 mL
- reduction of exacerbation (COPD patients; [4]): about 15%
- lung inflammation and emphysema [1]: inhibits lung inflammation and emphysema
